Source: patent US20130244929A1 (priority 2010, published 2013)
Structures can show the parent of a compound that is named as a salt. Where two headings read alike, the source gives them in different places.

How the values were obtained:
[1] = target: T1, SpsB (Staphylococcus aureus, UniProt P0A070); assay: Inhibition of SpsB enzyme activity (fluorescence-based assay, bacterial membrane fraction); type: biochemical
T1 construct: using a bacterial membrane fraction as a source of SpsB; from tissue
T1 sequence (P0A070 1-191): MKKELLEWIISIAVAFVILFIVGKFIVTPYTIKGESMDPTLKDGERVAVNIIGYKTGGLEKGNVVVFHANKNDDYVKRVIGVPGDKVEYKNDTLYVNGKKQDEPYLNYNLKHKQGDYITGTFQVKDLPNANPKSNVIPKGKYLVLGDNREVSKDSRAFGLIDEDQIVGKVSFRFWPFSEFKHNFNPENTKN
Method: Signal peptidase enzyme activity was measured in a fluorescence-based assay using a bacterial membrane fraction as a source of SpsB (See Bruton et al., 2003, Eur J Med Chem 38:351-356). The SpsB substrate is a synthetic lipopeptide, decanoyl-K(DABCYL)-TPTAKA↓ASKKD-D(EDANS)—NH2 (prepared by JPT Peptide Technologies, Berlin, Germany). Assays were performed with 20 μM peptide substrate (Km≈5 μM) and reactions were initiated with enzyme addition (final protein concentration of 0.6 mg/mL). SpsB mediated cleavage of the peptide substrate was detected as an increase in fluorescence (excitation 340 nm/emission 460 nm).

[2] = tested on: MB 5393 (COL), a methicillin-resistant S. aureus strain; assay: Determination of minimum and synergistic inhibitory concentration; type: cell-based; details: for SIC: presence of imipenem (4 μg/mL); for MIC: Staphylococcus aureus
Method: MB 5393 (COL), a methicillin-resistant S. aureus strain, was inoculated into Trypticase Soy Broth (TSB, BBL) and grown in a humidified incubator for 18 hours with rotary shaking at 220 rpm and kept on ice until used.
A quantity of imipenem (Merck Chemical Collection) was weighed out and dissolved into sterile 10 mM MOPS buffer at pH 7. This solution was diluted to 1600 μg/mL, 200 μg/mL, and 25 μg/mL and filter-sterilized through a 0.45 μm filter. From these solutions, seven 1:2 serial dilutions were prepared using sterile 10 mM MOPS buffer at pH 7. The final concentration ranges tested were 128 to 2 μg/mL, 16 to […], and 2 to 0.03 μg/mL. The solutions were kept refrigerated until used.
Test compounds (EXAMPLES 1-67) were prepared in sterile water or DMSO at a concentration of 3.2 mg/mL. From this solution, 11 serial 1:2 dilutions were prepared using sterile water. The final concentration range tested was 64 to 0.0313 μg/mL. The solutions were kept refrigerated until used.
Two-fold serial dilutions of test compounds were tested in the presence and absence of subinhibitory concentrations of imipenem (4 μg/mL) in 96-well U bottom microliter dishes in microbiological growth media. The plates were inoculated with bacterial cells to a final concentration of ˜5×10^5 CFU/mL. Test plates were incubated stationery at 37° C. for 22-24 hours.
After 22 hours of incubation, the Minimum inhibitory concentrations (MICs) were determined, defined as the lowest concentration of antibiotic that prevented all visible growth in the absence of imipenem. Synergistic inhibitory concentrations (SICs) were determined, defined as the lowest concentration of antibiotic that prevented all visible growth in the presence of imipenen.

[3] = MRSA COL, absence of imipenem, 22 hours, read-out: MIC

CCCCCCCCCc1ccc(-c2ccc(C(=O)NCCC(=O)N3C[C@@H](N)C[C@H]3C(=O)N(C)[C@@H]3C(=O)N[C@@H](C)C(=O)N[C@H](C(=O)O)Cc4ccc(O)c(c4)-c4cc3ccc4O)cc2)cc1 [EXAMPLE 44]
IC50 [1]: < 10 nM
SIC ([2]; MRSA COL, 22 hours): G (G: SIC <0.0625)
MIC ([2]; MRSA, 22 h): < 1 µg/mL

CCCCCCCCCc1ccc(-c2ccc(C(=O)NCCC(=O)N[C@@H](CCCCO)C(=O)N(C)[C@@H]3C(=O)N[C@@H](C)C(=O)N[C@H](C(=O)O)Cc4ccc(O)c(c4)-c4cc3ccc4O)cc2)cc1 [EXAMPLE 50]
IC50 [1]: < 10 nM
SIC ([2]; MRSA COL, 22 hours): H (H: SIC 0.062-1)
MIC [2, 3]: > 8 µg/mL

CCCCCCCCCc1ccc(-c2ccc(C(=O)NCCC(=O)N[C@@H](CCCCN)C(=O)N(C)[C@@H]3C(=O)N[C@@H](C)C(=O)N[C@H](C(=O)O)Cc4ccc(O)c(c4)-c4cc3ccc4O)cn2)cc1 [EXAMPLE 54]
IC50 [1]: < 10 nM
SIC ([2]; MRSA COL, 22 hours): G (G: SIC <0.0625)
MIC ([2]; MRSA, 22 h): < 1 µg/mL

CCCCCCc1ccc(-c2ccc(C(=O)NCCC(=O)N[C@@H](CCCCN)C(=O)N(C)[C@@H]3C(=O)N[C@@H](C)C(=O)N[C@H](C(=O)O)Cc4ccc(O)c(c4)-c4cc3ccc4O)cc2)cc1 [EXAMPLE 31]
IC50 [1]: < 10 nM
SIC ([2]; MRSA COL, 22 hours): G (G: SIC <0.0625)
MIC ([2]; MRSA, 22 h): < 1 µg/mL

CCCCCCCCCCc1ccc2cc(C(=O)NCCC(=O)N[C@@H](CCCCNC(C)=O)C(=O)N(C)[C@@H]3C(=O)N[C@@H](C)C(=O)N[C@H](C(=O)O)Cc4ccc(O)c(c4)-c4cc3ccc4O)ccc2c1 [EXAMPLE 33]
IC50 [1]: < 10 nM
SIC ([2]; MRSA COL, 22 hours): G (G: SIC <0.0625)
MIC [2, 3]: > 8 µg/mL

C[C@@H]1NC(=O)[C@@H](N(C)C(=O)[C@H](CCCCN)NC(=O)CCNC(=O)c2ccc(-c3ccc(C(C)(C)C)cc3)cc2)c2ccc(O)c(c2)-c2cc(ccc2O)C[C@@H](C(=O)O)NC1=O [EXAMPLE 42]
IC50 [1]: < 10 nM
SIC ([2]; MRSA COL, 22 hours): H (H: SIC 0.062-1)
MIC ([2]; MRSA, 22 h): < 1 µg/mL

C[C@@H]1NC(=O)[C@@H](N(C)C(=O)[C@H](CCCCN)NC(=O)CCNC(=O)c2ccc(-c3ccc(C4C5CC6CC(C5)CC4C6)cc3)cc2)c2ccc(O)c(c2)-c2cc(ccc2O)C[C@@H](C(=O)O)NC1=O (stereo partly drawn) [EXAMPLE 21]
IC50 [1]: < 10 nM
SIC ([2]; MRSA COL, 22 hours): G (G: SIC <0.0625)
MIC ([2]; MRSA, 22 h): < 1 µg/mL

CCCCCCCCCCc1ccc2nc(C(=O)NCCC(=O)N[C@@H](CCCCN)C(=O)N(C)[C@@H]3C(=O)N[C@@H](C)C(=O)N[C@H](C(=O)O)Cc4ccc(O)c(c4)-c4cc3ccc4O)ccc2c1 [EXAMPLE 62]
IC50 [1]: 10 to 50 nM
SIC ([2]; MRSA COL, 22 hours): G (G: SIC <0.0625)
MIC [2, 3]: < 1 µg/mL

CC(C)CCCC(C)CCc1ccc(-c2ccc(C(=O)NCCC(=O)N[C@@H](CCCCN)C(=O)N(C)[C@@H]3C(=O)N[C@@H](C)C(=O)N[C@H](C(=O)O)Cc4ccc(O)c(c4)-c4cc3ccc4O)cc2)cc1 (stereo partly drawn) [EXAMPLE 25]
IC50 [1]: < 10 nM
SIC ([2]; MRSA COL, 22 hours): G (G: SIC <0.0625)
MIC ([2]; MRSA, 22 h): < 1 µg/mL

CCCCCCCCCc1ccc(-c2cccc3c(C(=O)NCCC(=O)N[C@@H](CCCCN)C(=O)N(C)[C@@H]4C(=O)N[C@@H](C)C(=O)N[C@H](C(=O)O)Cc5ccc(O)c(c5)-c5cc4ccc5O)cnn23)cc1 [EXAMPLE 65]
IC50 [1]: 10 to 50 nM
SIC ([2]; MRSA COL, 22 hours): G (G: SIC <0.0625)
MIC ([2]; MRSA, 22 h): 1 to 8 µg/mL

CC(C)CCCCCCc1ccc(-c2ccc(C(=O)NCCC(=O)N[C@@H](CCCCN)C(=O)N(C)[C@@H]3C(=O)N[C@@H](C)C(=O)N[C@H](C(=O)O)Cc4ccc(O)c(c4)-c4cc3ccc4O)cc2)cc1 [EXAMPLE 37]
IC50 [1]: < 10 nM
SIC ([2]; MRSA COL, 22 hours): G (G: SIC <0.0625)
MIC ([2]; MRSA, 22 h): < 1 µg/mL

CCCc1ccc(-c2ccc(C(=O)NCCC(=O)N[C@@H](CCCCNC=N)C(=O)N(C)[C@@H]3C(=O)N[C@@H](C)C(=O)N[C@H](C(=O)O)Cc4ccc(O)c(c4)-c4cc3ccc4O)cc2)cc1 [EXAMPLE 48]
IC50 [1]: < 10 nM
SIC ([2]; MRSA COL, 22 hours): H (H: SIC 0.062-1)
MIC ([2]; MRSA, 22 h): 1 to 8 µg/mL

CCCc1ccc(-c2ccc(C(=O)NCCC(=O)N3CCC[C@@H]3C(=O)N(C)[C@@H]3C(=O)N[C@@H](C)C(=O)N[C@H](C(=O)O)Cc4ccc(OC)c(c4)-c4cc3ccc4OC)cc2)cc1 [EXAMPLE 13, (8S,11S,14S)-3,18-dimethoxy-11-methyl-14-(methyl{[(2R)-1-(3-{[(4′-propylbiphenyl-4-yl)carbonyl]amino}propanoyl)pyrrolidin-2-yl]carbonyl}amino)-10,13-dioxo-9,12-diazatricyclo[13.3.1.1^2,6]icosa-1(19),2(20),3,5,15,17-hexaene-8-carboxylic acid]
IC50 [1]: > 50 nM
SIC ([2]; MRSA COL, 22 hours): I (I: SIC >1)
MIC [2, 3]: > 8 µg/mL

CCCCCCCCCc1ccc(-c2ccc(C(=O)NCCC(=O)N[C@@H](CCCCN)C(=O)N(C)[C@@H]3C(=O)N[C@@H](C)C(=O)N[C@H](C(=O)O)Cc4ccc(O)c(c4)-c4cc3ccc4O)cc2)cc1.O=C(O)C(F)(F)F [EXAMPLE 16, (5S)-6-[[(7S,10S,13S)-13-carboxy-3,18-dihydroxy-10-methyl-8,11-dioxo-9,12-diazatricyclo[13.3.1.1^2,6]icosa-1(19),2(20),3,5,15,17-hexaen-7-yl](methyl)amino]-5-[(3-{[(4′-nonylbiphenyl-4-yl)carbonyl]amino}propanoyl)amino]-6-oxohexan-1-aminium trifluoroacetate]
IC50 [1]: < 10 nM
SIC ([2]; MRSA COL, 22 hours): G (G: SIC <0.0625)
MIC [2, 3]: < 1 µg/mL

CCCCc1ccc(C#Cc2ccc(C(=O)NCCC(=O)NC(CCCCN)C(=O)N(C)[C@@H]3C(=O)N[C@@H](C)C(=O)N[C@H](C(=O)O)Cc4ccc(OC)c(c4)-c4cc3ccc4OC)cc2)cc1 (stereo partly drawn) [EXAMPLE 10, 5-{[3-({4-[(4-butylphenyl)ethynyl]benzoyl}amino)propanoyl]amino}-6-[[(7S,10S,13S)-13-carboxy-3,18-dimethoxy-10-methyl-8,11-dioxo-9,12-diazatricyclo[13.3.1.1^2,6]icosa-1(19),2(20),3,5,15,17-hexaen-7-yl](methyl)amino]-6-oxohexart-1-aminium trifluoroacetate]
IC50 [1]: < 10 nM
SIC ([2]; MRSA COL, 22 hours): H (H: SIC 0.062-1)
MIC [2, 3]: 1 to 8 µg/mL

CCCCCCCCc1ccc(-c2ccc(C(=O)NCCC(=O)N[C@@H](CCCCN)C(=O)N(C)[C@@H]3C(=O)N[C@@H](C)C(=O)N[C@H](C(=O)O)Cc4ccc(O)c(c4)-c4cc3ccc4O)cc2)cc1 [EXAMPLE 23]
IC50 [1]: < 10 nM
SIC ([2]; MRSA COL, 22 hours): G (G: SIC <0.0625)
MIC ([2]; MRSA, 22 h): < 1 µg/mL

CCCc1ccc(-c2ccc(C(=O)NCCC(=O)NC(CCCCN)C(=O)N(C)[C@@H]3C(=O)N[C@@H](C)C(=O)N[C@H](C(=O)O)Cc4ccc(O)c(c4)-c4cc3ccc4O)cc2)cc1.O=C(O)C(F)(F)F (stereo partly drawn) [EXAMPLE 2, 5-(R,S)-6-[[(7S,10S,3S)-13-carboxy-3,18-dihydroxy-10-methyl-8,11-dioxo-9,12-diazatricyclo[13.3.1.1^2,6]icosa-1(19),2(20),3,5,15,17-hexaen-7-yl](methyl)amino]-6-oxo-5-[(3-{[(4′-propylbiphenyl-4-yl)carbonyl]amino}propanoyl)amino]hexan-1-aminium trifluoroacetate]
IC50 [1]: 10 to 50 nM
SIC ([2]; MRSA COL, 22 hours): H (H: SIC 0.062-1)
MIC [2, 3]: 1 to 8 µg/mL

CCCCCCCCCc1ccc(-c2ccc(C(=O)NCCC(=O)N[C@@H](CCCCN)C(=O)N(C)[C@@H]3C(=O)N[C@@H](C)C(=O)N[C@H](C(=O)O)Cc4ccc(O)c(c4)-c4cc3ccc4O)c(C)c2)cc1 [EXAMPLE 43]
IC50 [1]: < 10 nM
SIC ([2]; MRSA COL, 22 hours): G (G: SIC <0.0625)
MIC ([2]; MRSA, 22 h): < 1 µg/mL

C[C@@H]1NC(=O)[C@@H](N(C)C(=O)[C@H](CCCCN)NC(=O)CCNC(=O)c2ccc(CCCCCCCCc3ccccc3)cc2)c2ccc(O)c(c2)-c2cc(ccc2O)C[C@@H](C(=O)O)NC1=O.O=C(O)C(F)(F)F [EXAMPLE 15, (5S)-6-[[(7S,10S,13S)-13-carboxy-3,18-dihydroxy-10-methyl-8,11-dioxo-9,12-diazatricyclo[13.3.1.12,6]icosa-1(19),2(20),3,5,15,17-hexaen-7-yl](methyl)amino]-6-oxo-5-[(3-{[4-(8-phenyloctyl)benzoyl]amino}propanoyl)amino]hexan-1-aminium]
IC50 [1]: < 10 nM
SIC ([2]; MRSA COL, 22 hours): G (G: SIC <0.0625)
MIC [2, 3]: < 1 µg/mL

CC(c1ccc(-c2ccc(C(=O)NCCC(=O)N[C@@H](CCCCN)C(=O)N(C)[C@@H]3C(=O)N[C@@H](C)C(=O)N[C@H](C(=O)O)Cc4ccc(O)c(c4)-c4cc3ccc4O)cc2)cc1)C12CC3CC(CC(C3)C1)C2 (stereo partly drawn) [EXAMPLE 22]
IC50 [1]: < 10 nM
SIC ([2]; MRSA COL, 22 hours): G (G: SIC <0.0625)
MIC ([2]; MRSA, 22 h): < 1 µg/mL
